Data published in patent publication US12544396B2, “Compositions and methods for treating metabolic disease” (VOGENX, priority 2019, dated 2026).

Tests used:
[1] = Oral glucose tolerance test (OGTT) in normal rats: plasma glucose and plasma insulin; type: in vivo; settings: for Plasma glucose 0 hr / Plasma insulin 0 hr / Plasma glucose 0.25 hr / Plasma insulin 0.25 hr / Plasma glucose 0.5 hr / Plasma insulin 0.5 hr / Plasma glucose 1 hr / Plasma insulin 1 hr / Plasma glucose 2 hr / Plasma insulin 2 hr / Plasma glucose 4 hr / Plasma insulin 4 hr / Plasma glucose ΔAUC 0-1 hr / Plasma insulin ΔAUC 0-1 hr: oral, KGT-1681 3 mg/kg, KGA-3235 0.03 mg/kg, Combo 3 and 0.03 mg/kg; for Effect on increase in plasma glucose after glucose loading: FIG. 1A; for Two-way ANOVA main effect in AUC0-1hr for plasma glucose: FIG. 1B; for Effect on plasma insulin: FIG. 2A
Protocol: Example 1. Combination treatment with mizagliflozin and remogliflozin. Combination treatment with KGT-1681 and KGA-3235 in normal rats. KGT-1681 was suspended in 0.1% methylcellulose (MC) and KGA-3235 was dissolved in distilled water (DW). Rats (9 weeks of age) were divided into the following four groups and treated as indicated: vehicle, 0.1% MC+DW; KGT, KGT-1681 (3 mg/kg, 5 mL/kg) plus DW; KGA, 0.1% MC plus KGA-3235 (0.03 mg/kg, 5 mL/kg); and Combo, KGT-1681 plus KGA-3235 (3 and 0.03 mg/kg, respectively). After 16 h fasting, the drug and glucose solution (400 g/L, 5 ml/kg) were orally administered to rats. Blood was obtained in heparinized and aprotinin-treated tubes from a tail vein at each sampling point. Plasma glucose concentration was determined using a Glucose CII-test Wako (Wako Pure Chemicals, Osaka, Japan). Plasma insulin was determined using an enzyme-linked immunosorbent assay kit (Morinaga Institute of Biological Science, Inc., Yokohama, Japan). The area under the curve (AUC)0-1 hr for plasma glucose and insulin were calculated from the plasma glucose and insulin concentrations during the OGTT (Table 1).

[2] = orally administered to rat, in comparison with no compound; cited from earlier work
[3] = pre-treatment before mixed meal, cited from earlier work

SMILES	Plasma glucose 0 hr [1] [mg/dL]	Plasma insulin 0 hr [1] [pg/mL]	Plasma glucose 0.25 hr [1] [mg/dL]	Plasma insulin 0.25 hr [1] [pg/mL]	Plasma glucose 0.5 hr [1] [mg/dL]	Plasma insulin 0.5 hr [1] [pg/mL]	Plasma glucose 1 hr [1] [mg/dL]	Plasma insulin 1 hr [1] [pg/mL]	Plasma glucose 2 hr [1] [mg/dL]	Plasma insulin 2 hr [1] [pg/mL]	Plasma glucose 4 hr [1] [mg/dL]	Plasma insulin 4 hr [1] [pg/mL]	Effect on increase in plasma glucose after glucose loading [1]	Two-way ANOVA main effect in AUC0-1hr for plasma glucose [1]	Effect on plasma insulin [1]	Plasma glucose ΔAUC 0-1 hr [1] [mg·h/dL]	Plasma insulin ΔAUC 0-1 hr [1] [pg·h/mL]	other results
Cc1cc(OCCCNCC(C)(C)C(N)=O)ccc1Cc1c(O[C@@H]2O[C@H](CO)[C@@H](O)[C@H](O)[C@H]2O)n[nH]c1C(C)C [KGA-3235, 3-(3-{4-[3-(β-D-glucopyranosyloxy)-5-isopropyl-1H-pyrazol-4-ylmethyl-]-3-methylphenoxy}propylamino)-2,2-dimethylpropionamide]	92 ± 4	278 ± 25	147 ± 7	1197 ± 146	164 ± 5	1014 ± 131	169 ± 5	933 ± 111	136 ± 2	551 ± 98	80 ± 3	286 ± 39	inhibited the increase in plasm glucose	significant main effect	decreased	152 ± 4	948 ± 88	–
CCOC(=O)OC[C@H]1O[C@@H](Oc2ccccc2Cc2ccc(OC)cc2)[C@H](O)[C@@H](O)[C@@H]1O [2-(4-methoxybenzyl)phenyl 6-O-ethoxycarbonyl-β-D-glucopyranoside]	–	–	–	–	–	–	–	–	–	–	–	–	–	–	–	–	–	Increase of lipid accumulative amount in rat liver [2]: inhibited significantly
OC[C@H]1O[C@@H](c2ccc(Cl)c(Cc3ccc(O[C@H]4CCOC4)cc3)c2)[C@H](O)[C@@H](O)[C@@H]1O [empagliflozin]	–	–	–	–	–	–	–	–	–	–	–	–	–	–	–	–	–	Severity of hypoglycemic events ([3]; versus placebo, p=0.037): significantly reduced; Nadir glucose values [3]: significantly increased; Events requiring rescue glucose administration ([3]; placebo 7 of 12 patients): two
CCOC(=O)OC[C@H]1O[C@@H](Oc2nn(C(C)C)c(C)c2Cc2ccc(OC(C)C)cc2)[C@H](O)[C@@H](O)[C@@H]1O [KGT-1681, 5-methyl-4-[4-(1-methylethoxy)benzyl]-1-(1-methylethyl)-1H-pyrazol-3-yl 6-O-(ethoxycarbonyl)-β-D glucopyranoside]	101 ± 3	380 ± 29	146 ± 5	1219 ± 183	163 ± 7	978 ± 182	168 ± 6	1187 ± 152	113 ± 5	425 ± 40	85 ± 2	338 ± 92	inhibited the increase in plasm glucose	significant main effect	decreased	152 ± 5	1020 ± 148	–
